According to ChEMBL document CHEMBL1201862, “PubChem BioAssay data set” (2004):
Activity calls are given as the source filed them.

Experiments:
[1] = biological target: Trypsin (Sus scrofa, UniProt P00761); experiment: trypsin protease activity blockade – biochemical, quenched peptide fluorescence, cherry-pick, selectivity assay for Rce1 protease inhibitor project, dose response (AID 488789)
[2] = biological target: T1, CAAX prenyl protease 2 (Saccharomyces cerevisiae S288c, UniProt Q03530); assay type: biochemical
T1 sequence (Q03530 whole entry): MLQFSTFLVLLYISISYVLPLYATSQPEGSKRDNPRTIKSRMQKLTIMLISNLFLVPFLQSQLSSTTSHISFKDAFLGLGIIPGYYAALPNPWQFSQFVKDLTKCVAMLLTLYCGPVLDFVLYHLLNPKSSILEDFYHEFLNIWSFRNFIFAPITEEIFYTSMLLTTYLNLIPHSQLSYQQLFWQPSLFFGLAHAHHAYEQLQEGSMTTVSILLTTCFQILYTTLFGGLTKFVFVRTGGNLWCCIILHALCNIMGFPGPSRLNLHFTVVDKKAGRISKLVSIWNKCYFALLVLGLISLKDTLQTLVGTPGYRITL

[3] = biological target: T2, CAAX prenyl protease 2 (Homo sapiens, UniProt Q9Y256); experiment: inhibition of Ras-converting CAAX protease Rce1 – biochemical, yeast membranes, quenched-peptide fluorescence, cherry-pick, dose response (AID 588849)
T2 sequence (Q9Y256 whole entry): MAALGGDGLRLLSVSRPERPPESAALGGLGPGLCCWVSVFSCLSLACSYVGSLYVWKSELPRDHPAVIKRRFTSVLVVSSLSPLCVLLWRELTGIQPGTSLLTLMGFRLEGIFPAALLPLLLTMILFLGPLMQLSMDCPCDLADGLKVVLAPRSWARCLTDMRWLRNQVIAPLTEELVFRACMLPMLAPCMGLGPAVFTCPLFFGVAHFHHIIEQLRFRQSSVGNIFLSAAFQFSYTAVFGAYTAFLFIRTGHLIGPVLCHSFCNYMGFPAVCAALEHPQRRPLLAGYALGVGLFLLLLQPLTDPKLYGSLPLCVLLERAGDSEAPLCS

[4] = luciferase reporter signal suppression in cells – H4 neuroglioma cells, luminescence, dose response (AID 1990); assay type: functional, cell-based
[5] = Luminescence Cell-Based Dose Response HTS to Identify Inhibitors of 5'UTR Stem-Loop Driven Prion Protein mRNA Translation in H4 Neuroglioblastoma Cells. [Related pubchem assays: 1827 (Project Summary), 1813 (Primary HTS)]; assay type: functional
[6] = alpha-synuclein stem-loop luciferase translation blockers – H4 neuroglioma cells, luminescence, confirmation (AID 1988); assay type: functional, cell-based
[7] = Trypanosoma cruzi growth suppression in host cells – NIH3T3 host cells, beta-gal luminescence, confirmation (AID 2044); assay type: functional, cell-based;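 note: intracellular parasites grown in NIH/3T3 mouse fibroblasts as host cells; luminescent beta-galactosidase reporter signal from transgenic T. cruzi replicating inside host cells; inhibitors lower the luminescence signal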
[8] = NIH3T3 cell viability loss – ATP luminescence, mouse fibroblasts, counter-screen, dose response (AID 2010); assay type: functional, cell-based;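 note: cells exposed to compound for about 90 hours before reading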
[9] = reduction of Shn3 3'UTR-driven luciferase in osteoblasts – cell-based, Clone20 osteoblasts, firefly luciferase, cherry-picked, dose response (AID 624132); assay type: functional;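 note: firefly luciferase luminescence from reporter carrying the Shn3 3'UTR in osteoblasts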
[10] = loss of viability in HepG2 cells – cell-based, CellTiter-Glo, cherry-picked, cytotoxicity control for Shn3 inhibitor project, dose response (AID 624134); assay type: functional
[11] = non-specific 3'UTR reporter inhibition in Clone20-Shn3RL – cell-based, Renilla luciferase, cherry-picked, counter-screen for Shn3 inhibitor project, dose response (AID 624133); assay type: functional
[12] = HPDE-C7 pancreatic duct cell viability loss – fluorescence, HTS (AID 430); assay type: functional, cell-based; conditions: Homo sapiens
[13] = viability loss of HPDE-C7K cells – cell-based, fluorescence, HTS, primary screen (AID 431); assay type: functional; conditions: Homo sapiens
[14] = THP-1 cell cytotoxicity, dose response, cytotoxicity control for non-replicating M. tuberculosis project (AID 489025); assay type: functional
[15] = cells; assay type: functional
[16] = biological target: Tumor necrosis factor (Homo sapiens, UniProt P01375); experiment: analog potency on TNFa NF-kB signaling – cell-based, revised, SAR follow-up (AID 2337); assay type: functional
[17] = biological target: T3, Nucleotide-binding oligomerization domain-containing protein 1 (Homo sapiens, UniProt Q9Y239); experiment: blockers of NOD1 pathway activity – revised, SAR follow-up (AID 2333); assay type: functional
T3 sequence (Q9Y239 whole entry): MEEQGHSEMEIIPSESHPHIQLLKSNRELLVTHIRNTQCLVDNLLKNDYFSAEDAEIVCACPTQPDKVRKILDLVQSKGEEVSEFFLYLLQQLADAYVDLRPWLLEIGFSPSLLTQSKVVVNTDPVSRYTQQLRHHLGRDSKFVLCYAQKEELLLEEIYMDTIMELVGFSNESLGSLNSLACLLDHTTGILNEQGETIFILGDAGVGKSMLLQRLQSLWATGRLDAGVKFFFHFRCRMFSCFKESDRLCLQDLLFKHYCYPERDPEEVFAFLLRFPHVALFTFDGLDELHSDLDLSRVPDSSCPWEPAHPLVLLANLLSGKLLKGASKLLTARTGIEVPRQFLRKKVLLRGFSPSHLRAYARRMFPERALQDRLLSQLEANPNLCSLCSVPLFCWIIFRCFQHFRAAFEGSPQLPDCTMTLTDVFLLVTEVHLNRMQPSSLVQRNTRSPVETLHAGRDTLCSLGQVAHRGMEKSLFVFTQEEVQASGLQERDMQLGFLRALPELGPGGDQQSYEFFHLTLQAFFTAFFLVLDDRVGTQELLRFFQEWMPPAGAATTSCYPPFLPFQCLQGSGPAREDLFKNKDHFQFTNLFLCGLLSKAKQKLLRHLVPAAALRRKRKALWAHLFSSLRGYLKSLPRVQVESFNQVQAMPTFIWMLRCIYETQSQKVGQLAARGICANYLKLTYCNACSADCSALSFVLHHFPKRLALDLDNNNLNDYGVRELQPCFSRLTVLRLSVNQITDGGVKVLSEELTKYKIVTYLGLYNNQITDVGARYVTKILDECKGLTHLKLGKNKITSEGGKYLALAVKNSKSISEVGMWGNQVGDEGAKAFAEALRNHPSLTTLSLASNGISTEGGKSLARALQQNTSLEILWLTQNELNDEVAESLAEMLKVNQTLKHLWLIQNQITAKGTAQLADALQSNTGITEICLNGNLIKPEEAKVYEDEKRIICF

[18] = tested on: HEK293; experiment: cells; conditions: Homo sapiens;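 note: cells exposed to compound for 14 hours overnight before viability readout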
[19] = biological target: T4, E3 ubiquitin-protein ligase XIAP (Homo sapiens, UniProt P98170); experiment: Counter Screen using XIAP-Bir3 for Chemical Antagonists of Bir1/2 domains of IAP-family anti-apoptotic proteins. [Related pubchem assays (depositor defined):AID1018, AID1449, AID1514, AID1638, AID1749, AID1750, AID488957, AID488963]
[20] = biological target: T4, E3 ubiquitin-protein ligase XIAP; experiment: small molecules displacing peptide from XIAP – biochemical, IAP family, fluorescence polarization (AID 1018); assay type: functional
[21] = biological target: T5, Hexokinase HKDC1 (Homo sapiens, UniProt Q2TB90); experiment: inhibition of HKDC1 glucose phosphorylation – biochemical, W721R variant, dose response (AID 504729); assay type: functional
T5 sequence (Q2TB90 whole entry): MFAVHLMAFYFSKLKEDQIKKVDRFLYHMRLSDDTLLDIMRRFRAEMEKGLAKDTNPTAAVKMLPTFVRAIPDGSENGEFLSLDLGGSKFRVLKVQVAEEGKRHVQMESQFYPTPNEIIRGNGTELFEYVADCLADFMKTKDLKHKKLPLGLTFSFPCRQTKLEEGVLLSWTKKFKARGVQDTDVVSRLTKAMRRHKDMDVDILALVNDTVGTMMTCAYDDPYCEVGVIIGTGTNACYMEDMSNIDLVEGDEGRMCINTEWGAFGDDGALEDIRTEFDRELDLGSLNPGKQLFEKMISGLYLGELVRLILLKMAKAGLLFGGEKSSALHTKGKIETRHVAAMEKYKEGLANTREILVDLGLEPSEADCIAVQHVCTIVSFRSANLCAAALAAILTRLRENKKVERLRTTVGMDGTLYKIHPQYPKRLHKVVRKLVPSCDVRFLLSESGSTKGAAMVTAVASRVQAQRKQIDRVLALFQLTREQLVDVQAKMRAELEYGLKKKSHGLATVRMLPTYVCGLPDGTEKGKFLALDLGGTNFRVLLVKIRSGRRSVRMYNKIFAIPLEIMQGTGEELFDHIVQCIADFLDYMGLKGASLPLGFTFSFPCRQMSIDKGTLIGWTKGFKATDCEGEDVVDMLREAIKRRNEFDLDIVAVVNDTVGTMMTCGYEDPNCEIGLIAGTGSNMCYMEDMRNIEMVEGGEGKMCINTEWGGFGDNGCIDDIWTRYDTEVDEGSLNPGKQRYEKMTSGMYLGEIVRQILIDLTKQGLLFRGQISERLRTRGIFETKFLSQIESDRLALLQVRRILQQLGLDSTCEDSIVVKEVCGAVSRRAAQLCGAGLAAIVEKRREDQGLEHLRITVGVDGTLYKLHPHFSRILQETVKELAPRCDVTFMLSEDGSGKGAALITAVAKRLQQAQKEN

[22] = tested on: INS1; experiment: INS-1E survival protection against cytokine death – cell-based, luminescence, retest, dose response (AID 449756); assay type: functional; conditions: Rattus norvegicus;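 note: cell death triggered by IL-1 beta plus TNF-alpha plus IFN-gamma mixture; protective hits raise ATP signal compared with cytokine alone wells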
[23] = tested on: Jurkat; experiment: blockers of NF-kB activation in T cells – Jurkat, luciferase reporter, luminescence, B- and T-cell, dose response (AID 489004); assay type: functional, cell-based; conditions: Homo sapiens;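 note: NF-kB luciferase reporter Jurkat cells stimulated with PMA plus ionomycin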
[24] = HEK-293T viability loss, compound-treated – cell-based, uHTS hits, cytotoxicity control for B/T-cell NF-kB inhibitor project, dose response (AID 489019); assay type: functional;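 note: IC50 reflects cytotoxicity as loss of cell viability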
[25] = biological target: T6, RNA-binding protein pos-1 (Caenorhabditis elegans, UniProt G5EF15); experiment: disruptors of C. elegans POS-1 RNA interaction – biochemical, fluorescence polarization, dose response (AID 1964);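 note: purified POS-1 fused to maltose binding protein made in E. coli; potency of compounds blocking POS-1 binding to fluorescent RNA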
T6 sequence (G5EF15 whole entry): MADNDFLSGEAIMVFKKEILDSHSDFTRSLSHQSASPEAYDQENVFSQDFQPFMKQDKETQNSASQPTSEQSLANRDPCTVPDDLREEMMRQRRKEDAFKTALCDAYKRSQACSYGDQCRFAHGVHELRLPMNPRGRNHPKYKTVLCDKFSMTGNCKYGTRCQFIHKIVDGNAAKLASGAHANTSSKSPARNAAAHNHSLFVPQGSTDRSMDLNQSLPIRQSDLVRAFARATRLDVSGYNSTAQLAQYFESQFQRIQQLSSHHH

[26] = biological target: T7, Zinc finger protein mex-5 (Caenorhabditis elegans, UniProt Q9XUB2); experiment: potency of MEX-5 RNA-binding blockers – biochemical, C. elegans, fluorescence polarization, dose response (AID 1960)
T7 sequence (Q9XUB2 whole entry): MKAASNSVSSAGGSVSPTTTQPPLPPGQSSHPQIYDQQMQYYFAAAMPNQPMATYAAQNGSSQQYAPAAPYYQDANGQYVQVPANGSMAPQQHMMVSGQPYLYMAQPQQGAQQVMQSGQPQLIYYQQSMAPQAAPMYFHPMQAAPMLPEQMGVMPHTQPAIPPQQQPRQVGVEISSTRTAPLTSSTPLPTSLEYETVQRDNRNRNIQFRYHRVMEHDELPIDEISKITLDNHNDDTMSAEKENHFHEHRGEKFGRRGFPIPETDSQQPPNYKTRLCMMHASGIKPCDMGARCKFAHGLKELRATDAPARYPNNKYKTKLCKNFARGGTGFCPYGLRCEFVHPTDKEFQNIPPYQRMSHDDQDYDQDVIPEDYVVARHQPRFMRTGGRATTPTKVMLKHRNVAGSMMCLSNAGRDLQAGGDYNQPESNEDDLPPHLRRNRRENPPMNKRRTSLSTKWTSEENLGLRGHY

Sequence of Trypsin (P00761 whole entry): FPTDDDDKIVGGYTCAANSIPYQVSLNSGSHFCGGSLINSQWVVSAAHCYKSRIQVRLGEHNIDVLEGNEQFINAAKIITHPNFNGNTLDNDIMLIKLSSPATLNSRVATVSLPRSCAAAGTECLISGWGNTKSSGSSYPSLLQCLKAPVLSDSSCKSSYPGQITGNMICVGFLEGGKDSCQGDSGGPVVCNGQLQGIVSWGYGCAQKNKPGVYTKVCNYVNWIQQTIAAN
T4 sequence (P98170 whole entry): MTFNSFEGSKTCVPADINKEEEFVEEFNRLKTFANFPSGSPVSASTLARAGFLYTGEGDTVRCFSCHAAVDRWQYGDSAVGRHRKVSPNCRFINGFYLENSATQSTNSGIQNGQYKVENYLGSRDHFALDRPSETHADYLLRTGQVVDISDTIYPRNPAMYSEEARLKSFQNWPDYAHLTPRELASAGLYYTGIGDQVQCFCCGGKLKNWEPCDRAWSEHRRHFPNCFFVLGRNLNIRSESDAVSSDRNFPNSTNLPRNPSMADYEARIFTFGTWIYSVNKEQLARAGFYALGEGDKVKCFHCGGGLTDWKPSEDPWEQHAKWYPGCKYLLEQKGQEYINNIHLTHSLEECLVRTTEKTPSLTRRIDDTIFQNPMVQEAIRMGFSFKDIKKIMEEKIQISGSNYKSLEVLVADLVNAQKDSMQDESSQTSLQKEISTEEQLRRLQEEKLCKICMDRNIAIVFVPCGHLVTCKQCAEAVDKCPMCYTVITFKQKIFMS
Sequence of Tumor necrosis factor (P01375 whole entry, the tested form may be a part): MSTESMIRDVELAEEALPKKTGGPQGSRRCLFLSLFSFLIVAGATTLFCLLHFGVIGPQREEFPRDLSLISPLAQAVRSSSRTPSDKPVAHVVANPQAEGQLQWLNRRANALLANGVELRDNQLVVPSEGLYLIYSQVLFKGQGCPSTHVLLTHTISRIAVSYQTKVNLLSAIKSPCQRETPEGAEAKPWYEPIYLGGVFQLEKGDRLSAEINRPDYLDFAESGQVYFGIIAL

For COc1ccccc1-c1coc2c(CN3CCOCC3)c(O)ccc2c1=O, the AC50 [1] was 44.4 µM (active), the AC50 [2] was 52.5 µM (active) and the AC50 [3] was 11.8 µM (active).

In the case of c1ccc(CCNc2ccnc3cc4ccccc4cc23)cc1, the EC50 [4] is reported as > 120 µM (not active), the EC50 [5] is reported as 17.3 µM (active) and the EC50 [6] is reported as 7.98 µM (active). The EC50 [7] was 1.68 µM (active), the EC50 [8] was > 30 µM (not active) and the AC50 [1] was 11.2 µM (active). The AC50 [2] was 12.8 µM (active), the AC50 [3] was 94 µM (active) and the AC50 [9] was 1.62 µM (active). For the same molecule, the AC50 [10] was 8.78 µM (active) and the AC50 [11] was 3.45 µM (active).

For O=C(Oc1cccc2cccnc12)c1ccc2c(c1)OCCO2, the EC50 [12] was 5.8 µM (active), the EC50 [13] was 7.02 µM (active) and the CC50 [14] was 22.8 µM (active). For the same molecule, the IC50 [15] was 3.9 µM (active).

In the case of CC(=O)Nc1ccc(NC(=O)c2ccc(CN3CCc4ccccc4C3)cc2)cc1, the IC50 [16] is reported as > 20 µM (inactive), the IC50 [17] is reported as > 20 µM (inactive) and the IC50 [18] is reported as > 20 µM (inactive).

In the case of C=C(C)C1CC=C(C)/C(=N/NC(=O)CNc2ccc(C)cc2C)C1 (configuration not stated), the IC50 [19] is reported as > 100 µM (inactive) and the IC50 [20] is reported as > 100 µM (not active).

In the case of Cc1cc(C)n2nc(SCc3nnc(SCc4ccccc4C)s3)nc2n1, the IC50 [21] is reported as 5.17 µM (active) and the AC50 [22] is reported as 22.9 µM (active).

With C=C1C(O)[C@@H]2O[C@]3(CC[C@H](/C=C/C(C)[C@@H]4CC(C)=CC5(O[C@H](C[C@@](C)(O)C(=O)O)CCC5O)O4)O3)CC[C@H]2O[C@@H]1C(O)CC(C)[C@H]1OC2(CCCCO2)CCC1C (some centres not stated) the IC50 [23] was 0.17 µM (active), the IC50 [24] was > 80 µM (inactive) and the AC50 [22] was < 0.195 µM (active).

For Cc1cc(O)n2nc(N)c(N=Nc3ccccc3)c2n1, the EC50 [25] was 37.8 µM (active), the EC50 [26] was 15.2 µM (active) and the IC50 [19] was > 100 µM (inactive). For the same molecule, the IC50 [20] was > 100 µM (not active).

With CCOC(=O)c1nc2cc3n(c(C)c-2c1C)C(C)C(CC)=C3C (configuration not stated) the AC50 [1] was 7.97 µM (active), the AC50 [2] was 8.32 µM (active) and the AC50 [3] was 8.45 µM (active).

For C=CCn1cc(-c2ccccc2)cc(C#N)c1=O, the AC50 [1] was 7.96 µM (active) and the AC50 [3] was 6.89 µM (active).
